IC50 data for 67 compounds are collected here from US12030875B2, “EIF4E inhibitors and uses thereof” (PIC Therapeutics, Inc., priority 2018, dated 2024).

A value given as a limit tells only on which side of the number the result lay.

T1 sequence (P06730 28-217): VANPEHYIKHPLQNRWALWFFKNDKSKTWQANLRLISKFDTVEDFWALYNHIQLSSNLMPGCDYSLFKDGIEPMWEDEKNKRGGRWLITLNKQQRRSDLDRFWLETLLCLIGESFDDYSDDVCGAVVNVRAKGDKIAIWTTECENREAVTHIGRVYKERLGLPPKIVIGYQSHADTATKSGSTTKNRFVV

This experiment addresses T1, Human eIF4E (Homo sapiens, UniProt P06730).
T1 construct: Human eIF4E (aa 28-217) with a C-terminal His-tag; made in house
Put plainly: Human eIF4E/4G2 binding assay (TR-FRET). Conditions: eIF4E (aa 28-217) with biotin labeled 4G2 peptide. An outline of the steps:
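His-tagged human eIF4E (aa 28-217), refolded from E. coli inclusion bodies, at 82.5 nM working stock; compounds in 10-point 2-fold DMSO series, preincubated 15 min at RT in 50 mM NaPi pH 6.5, 50 mM KCl, 1 mM DTT. Biotin-4G2 peptide added, 15 min, then Eu-streptavidin/APC-anti-His, 20 min; normalized 665/615 nm TR-FRET signal; IC50 by curve fit.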
(Time-resolved FRET reads energy transfer from a long-lived donor to a nearby acceptor.)
Broadly, the IC50 is the concentration at which inhibition is half-maximal. Lower therefore signals higher potency. For the compound `O=C(O)C1CN(c2nc(-c3ccc(-c4ccc(F)cc4)cc3)c(-c3cccnc3)s2)CCO1` (stereo not shown) [Compound I-142], the IC50 is over 25 µM.

In turn, `O=C(O)C1CN(c2nc(-c3ccc(-c4ccc(F)cc4)cc3)c(-c3cccc4[nH]ccc34)s2)CCO1` (stereo not shown) [Compound I-143] registered an IC50 of under 5 µM.

Compound `CC1(C(=O)O)CCCN(c2nc(-c3ccc(-c4ccc(F)cc4)cc3)c(-c3ccccc3)s2)C1` (stereo not shown) [Compound I-144] gave an IC50 of under 5 µM.

`CC1(C(=O)O)CCCN(c2nc(-c3ccc(-c4ccc(F)cc4)cc3)c(-c3cncnc3)s2)C1` (stereo not shown) [Compound I-145] showed an IC50 of over 25 µM.

Turning to `CC1(C(=O)O)CCCN(c2nc(-c3ccc(-c4ccc(F)cc4)cc3)c(-c3cccnc3)s2)C1` (stereo not shown) [Compound I-146], the IC50 fell in the range of 5 to 25 µM.

`CC1(C(=O)O)CCCN(c2nc(-c3ccc(-c4ccc(F)cc4)cc3)c(-c3cccc4[nH]ccc34)s2)C1` (stereo not shown) [Compound I-147] gave an IC50 of under 5 µM.

For `CC(C)C(CC(=O)O)Nc1nc(-c2ccc(Oc3ccccc3)cc2)cs1` (stereo not shown) [Compound I-148], the IC50 was over 25 µM.

For the compound `CC(C)C(CC(=O)O)Nc1nc(-c2ccc(Oc3ccccc3)cc2)c(-c2ccccc2)s1` (stereo not shown) [Compound I-149], the 50% inhibitory concentration (IC50) was in the range of 5 to 25 µM.

Regarding `CC(C)(CC(=O)O)Nc1nc(-c2ccc(Oc3ccccc3)cc2)c(-c2cncnc2)s1` [Compound I-150], the IC50 was over 25 µM.

With `CC(C)C(CC(=O)O)Nc1nc(-c2ccc(Oc3ccccc3)cc2)c(-c2cccnc2)s1` (stereo not shown) [Compound I-151], the IC50 is over 25 µM.

As for `CC(C)C(CC(=O)O)Nc1nc(-c2ccc(Oc3ccccc3)cc2)c(-c2cccc3[nH]ccc23)s1` (stereo not shown) [Compound I-152], the 50% inhibitory concentration (IC50) was 5 to 25 µM.

With `CC(C)(CNc1nc(-c2ccc(Oc3ccccc3)cc2)cs1)C(=O)O` [Compound I-153], the IC50 was over 25 µM.

As to `CC(C)(CNc1nc(-c2ccc(Oc3ccccc3)cc2)c(-c2ccccc2)s1)C(=O)O` [Compound I-154], the IC50 is under 5 µM.

As for `CC(C)(CNc1nc(-c2ccc(Oc3ccccc3)cc2)c(-c2cncnc2)s1)C(=O)O` [Compound I-155], the IC50 was over 25 µM.

`CC(C)(CNc1nc(-c2ccc(Oc3ccccc3)cc2)c(-c2cccnc2)s1)C(=O)O` [Compound I-156] returned a half-maximal inhibitory concentration (IC50) of over 25 µM.

Compound `CC(C)(CNc1nc(-c2ccc(Oc3ccccc3)cc2)c(-c2cccc3[nH]ccc23)s1)C(=O)O` [Compound I-157] yielded an IC50 of 5 to 25 µM.

As to `O=C(O)C1CN(c2nc(-c3ccc(Oc4ccccc4)cc3)c(-c3ccccc3)s2)C1` [Compound I-158], the 50% inhibitory concentration (IC50) is under 5 µM.

Take `O=C(O)C1CN(c2nc(-c3ccc(Oc4ccccc4)cc3)c(-c3cncnc3)s2)C1` [Compound I-159]: the IC50 is over 25 µM.

With `O=C(O)C1CN(c2nc(-c3ccc(Oc4ccccc4)cc3)c(-c3cccnc3)s2)C1` [Compound I-160], the IC50 is over 25 µM.

In turn, `O=C(O)C1CN(c2nc(-c3ccc(Oc4ccccc4)cc3)c(-c3cccc4[nH]ccc34)s2)C1` [Compound I-161] gave an IC50 of 5 to 25 µM.

The compound `CC1(C(=O)O)CN(c2nc(-c3ccc(Oc4ccccc4)cc3)cs2)C1` [Compound I-162] registered an IC50 of over 25 µM.

`CC1(C(=O)O)CN(c2nc(-c3ccc(Oc4ccccc4)cc3)c(-c3ccccc3)s2)C1` [Compound I-163] had an IC50 of 5 to 25 µM.

`CC1(C(=O)O)CN(c2nc(-c3ccc(Oc4ccccc4)cc3)c(-c3cncnc3)s2)C1` [Compound I-164] registered an IC50 of over 25 µM.

`CC1(C(=O)O)CN(c2nc(-c3ccc(Oc4ccccc4)cc3)c(-c3cccnc3)s2)C1` [Compound I-165] yielded a half-inhibitory concentration (IC50) of over 25 µM.

Regarding `CC1(C(=O)O)CN(c2nc(-c3ccc(Oc4ccccc4)cc3)c(-c3cccc4[nH]ccc34)s2)C1` [Compound I-166], the concentration for half-maximal inhibition (IC50) is 5 to 25 µM.

Take `CCCC(CNc1nc(-c2ccc(Oc3ccccc3)cc2)cs1)C(=O)O` (stereo not shown) [Compound I-167]: the IC50 was over 25 µM.

In turn, `CCCC(CNc1nc(-c2ccc(Oc3ccccc3)cc2)c(-c2ccccc2)s1)C(=O)O` (stereo not shown) [Compound I-168] yielded an IC50 of under 5 µM.

`CCCC(CNc1nc(-c2ccc(Oc3ccccc3)cc2)c(-c2cncnc2)s1)C(=O)O` (stereo not shown) [Compound I-169] showed an IC50 of over 25 µM.

Turning to `CCCC(CNc1nc(-c2ccc(Oc3ccccc3)cc2)c(-c2cccnc2)s1)C(=O)O` (stereo not shown) [Compound I-170], the IC50 was over 25 µM.

In turn, `CCCC(CNc1nc(-c2ccc(Oc3ccccc3)cc2)c(-c2cccc3[nH]ccc23)s1)C(=O)O` (stereo not shown) [Compound I-171] registered an IC50 of 5 to 25 µM.

In turn, `CC(CC(=O)O)Nc1nc(-c2ccc(Oc3ccccc3)cc2)c(-c2ccccc2)s1` (stereo not shown) [Compound I-172] registered a half-inhibitory concentration (IC50) of 5 to 25 µM.

Consider `CC(CC(=O)O)Nc1nc(-c2ccc(Oc3ccccc3)cc2)c(-c2cncnc2)s1` (stereo not shown) [Compound I-173], for which the IC50 is over 25 µM.

Consider `CC(CC(=O)O)Nc1nc(-c2ccc(Oc3ccccc3)cc2)c(-c2cccnc2)s1` (stereo not shown) [Compound I-174], for which the 50% inhibitory concentration (IC50) is over 25 µM.

`CC(CC(=O)O)Nc1nc(-c2ccc(Oc3ccccc3)cc2)c(-c2cccc3[nH]ccc23)s1` (stereo not shown) [Compound I-175] came in with an IC50 of over 25 µM.

`CC(CNc1nc(-c2ccc(Oc3ccccc3)cc2)cs1)C(=O)O` (stereo not shown) [Compound I-176]: the IC50 was over 25 µM.

Turning to `CC(CNc1nc(-c2ccc(Oc3ccccc3)cc2)c(-c2ccccc2)s1)C(=O)O` (stereo not shown) [Compound I-177], the half-inhibitory concentration (IC50) was in the range of 5 to 25 µM.

For `CC(CNc1nc(-c2ccc(Oc3ccccc3)cc2)c(-c2cncnc2)s1)C(=O)O` (stereo not shown) [Compound I-178], the concentration for half-maximal inhibition (IC50) is over 25 µM.

The compound `CC(CNc1nc(-c2ccc(Oc3ccccc3)cc2)c(-c2cccnc2)s1)C(=O)O` (stereo not shown) [Compound I-179] gave a concentration for half-maximal inhibition (IC50) of over 25 µM.

For `CC(CNc1nc(-c2ccc(Oc3ccccc3)cc2)c(-c2cccc3[nH]ccc23)s1)C(=O)O` (stereo not shown) [Compound I-180], the IC50 was over 25 µM.

With `O=C(O)C1CCCN(c2nc(-c3ccc(Oc4ccccc4)cc3)cs2)C1` (stereo not shown) [Compound I-181], the IC50 is over 25 µM.

With `O=C(O)C1CCCN(c2nc(-c3ccc(Oc4ccccc4)cc3)c(-c3ccccc3)s2)C1` (stereo not shown) [Compound I-182], the IC50 is under 5 µM.

`O=C(O)C1CCCN(c2nc(-c3ccc(Oc4ccccc4)cc3)c(-c3cncnc3)s2)C1` (stereo not shown) [Compound I-183] displayed an IC50 of over 25 µM.

Consider `O=C(O)C1CCCN(c2nc(-c3ccc(Oc4ccccc4)cc3)c(-c3cccnc3)s2)C1` (stereo not shown) [Compound I-184], for which the IC50 is over 25 µM.

Turning to `O=C(O)C1CCCN(c2nc(-c3ccc(Oc4ccccc4)cc3)c(-c3cccc4[nH]ccc34)s2)C1` (stereo not shown) [Compound I-185], the 50% inhibitory concentration (IC50) is under 5 µM.

`O=C(O)CC1CCCN1c1nc(-c2ccc(Oc3ccccc3)cc2)c(-c2ccccc2)s1` (stereo not shown) [Compound I-186] registered an IC50 of under 5 µM.

`O=C(O)CC1CCCN1c1nc(-c2ccc(Oc3ccccc3)cc2)c(-c2cncnc2)s1` (stereo not shown) [Compound I-187] gave an IC50 of over 25 µM.

Turning to `O=C(O)CC1CCCN1c1nc(-c2ccc(Oc3ccccc3)cc2)c(-c2cccnc2)s1` (stereo not shown) [Compound I-188], the IC50 is over 25 µM.

Compound `O=C(O)CC1CCCN1c1nc(-c2ccc(Oc3ccccc3)cc2)c(-c2cccc3[nH]ccc23)s1` (stereo not shown) [Compound I-189] came in with an IC50 of 5 to 25 µM.

In turn, `O=C(O)C1CCN(c2nc(-c3ccc(Oc4ccccc4)cc3)cs2)C1` (stereo not shown) [Compound I-190] came in with an IC50 of over 25 µM.

`O=C(O)C1CCN(c2nc(-c3ccc(Oc4ccccc4)cc3)c(-c3ccccc3)s2)C1` (stereo not shown) [Compound I-191] registered an IC50 of under 5 µM.

In the case of `O=C(O)C1CCN(c2nc(-c3ccc(Oc4ccccc4)cc3)c(-c3cncnc3)s2)C1` (stereo not shown) [Compound I-192], the concentration for half-maximal inhibition (IC50) was over 25 µM.

With `O=C(O)C1CCN(c2nc(-c3ccc(Oc4ccccc4)cc3)c(-c3cccnc3)s2)C1` (stereo not shown) [Compound I-193], the concentration for half-maximal inhibition (IC50) is over 25 µM.

For the compound `O=C(O)C1CCN(c2nc(-c3ccc(Oc4ccccc4)cc3)c(-c3cccc4[nH]ccc34)s2)C1` (stereo not shown) [Compound I-194], the IC50 was in the range of 5 to 25 µM.

For `O=C(O)C1(CNc2nc(-c3ccc(Oc4ccccc4)cc3)cs2)CC1` [Compound I-195], the IC50 is over 25 µM.

Regarding `O=C(O)C1(CNc2nc(-c3ccc(Oc4ccccc4)cc3)c(-c3ccccc3)s2)CC1` [Compound I-196], the IC50 was under 5 µM.

As for `O=C(O)C1(CNc2nc(-c3ccc(Oc4ccccc4)cc3)c(-c3cncnc3)s2)CC1` [Compound I-197], the half-maximal inhibitory concentration (IC50) was over 25 µM.

Turning to `O=C(O)C1(CNc2nc(-c3ccc(Oc4ccccc4)cc3)c(-c3cccnc3)s2)CC1` [Compound I-198], the half-inhibitory concentration (IC50) was over 25 µM.

Take `O=C(O)C1(CNc2nc(-c3ccc(Oc4ccccc4)cc3)c(-c3cccc4[nH]ccc34)s2)CC1` [Compound I-199]: the 50% inhibitory concentration (IC50) was 5 to 25 µM.

`O=C(O)C1CC(CNc2nc(-c3ccc(Oc4ccccc4)cc3)cs2)C1` (stereo not shown) [Compound I-200] came in with an IC50 of over 25 µM.

`O=C(O)C1CC(CNc2nc(-c3ccc(Oc4ccccc4)cc3)c(-c3ccccc3)s2)C1` (stereo not shown) [Compound I-201]: the IC50 is under 5 µM.

Compound `O=C(O)C1CC(CNc2nc(-c3ccc(Oc4ccccc4)cc3)c(-c3cncnc3)s2)C1` (stereo not shown) [Compound I-202] showed an IC50 of over 25 µM.

For the compound `O=C(O)C1CC(CNc2nc(-c3ccc(Oc4ccccc4)cc3)c(-c3cccnc3)s2)C1` (stereo not shown) [Compound I-203], the IC50 was over 25 µM.

In the case of `O=C(O)C1CC(CNc2nc(-c3ccc(Oc4ccccc4)cc3)c(-c3cccc4[nH]ccc34)s2)C1` (stereo not shown) [Compound I-204], the 50% inhibitory concentration (IC50) lay in the range of 5 to 25 µM.

On to `O=C(O)C1CCN(c2nc(-c3ccc(Oc4ccccc4)cc3)c(-c3ccccc3)s2)CC1` [Compound I-209], for which the IC50 is under 5 µM.

With `O=C(O)C1CCN(c2nc(-c3ccc(Oc4ccccc4)cc3)c(-c3cncnc3)s2)CC1` [Compound I-210], the IC50 was over 25 µM.

`O=C(O)C1CCN(c2nc(-c3ccc(Oc4ccccc4)cc3)c(-c3cccnc3)s2)CC1` [Compound I-211] had an IC50 of over 25 µM.

`O=C(O)C1CCN(c2nc(-c3ccc(Oc4ccccc4)cc3)c(-c3cccc4[nH]ccc34)s2)CC1` [Compound I-212] gave an IC50 of 5 to 25 µM.
